In US12083094B2, “Cannabinoid composition and methods of treatment using the same” (CANNPAL ANIMAL THERAPEUTICS LIMITED, priority 2018, dated 2024):

Test: Blood sampling for THC and CBD plasma concentration after single oral dosing
Conditions: for concentration at 0 h / concentration at 1 h / concentration at 1.5 h / concentration at 2 h / concentration at 3 h / concentration at 4 h / concentration at 12 h / concentration at 16 h / concentration at 24 h / concentration at 72 h / concentration at 0.67 h / concentration at 6 h / concentration at 8 h / concentration at 32 h / concentration at 48 h: oral, THC level in blood plasma fraction; for AUC: AUC for THC concentration, canine
Procedure: Two compositions, IVP1 and IVP2, were administered in varying amounts in the study.
Dosage volumes were calculated prior to Day 0, to provide the target dosage in mg/kg bodyweight based on actual dog bodyweights and IVP active ingredient composition based on the Certificates of Analysis.
Blood samples of approximately 5 mL were collected at each drug concentration sampling time-point from each animal using 22-gauge needles and 5 mL syringes.
The data points from Table 4 and Table 5 were also plotted and these graphs are set out in FIGS. 1-16.

[1] = dog, plasma, individual dogs 1-4, 0.24 mg/kg THC + 0.12 mg/kg CBD oral once
[2] = dog, plasma, individual dogs 5-8, 0.12 mg/kg THC + 0.24 mg/kg CBD oral once
[3] = dog, plasma, mean of dogs 1-4, 0.24 mg/kg THC + 0.12 mg/kg CBD oral once
[4] = dog, plasma, mean of dogs 5-8, 0.12 mg/kg THC + 0.24 mg/kg CBD oral once

Compound: CCCCCc1cc(O)c2c(c1)OC(C)(C)[C@@H]1CCC(C)=C[C@@H]21 [THC, Δ^9-Tetrahydrocannabinol]
- THC in the subject's blood (72 h after administration): detectable
- concentration at 0 h [1]: 0 ng/mL
- concentration at 1 h [1]: 45.2 ng/mL
- concentration at 1.5 h [1]: 30.1 ng/mL
- concentration at 2 h [1]: 25.6 ng/mL
- concentration at 0 h [2]: 0 ng/mL
- concentration at 2 h [2]: 22.3 ng/mL
- concentration at 3 h [2]: 8.19 ng/mL
- concentration at 4 h [2]: 4.19 ng/mL
- concentration at 12 h [2]: 0.56 ng/mL
- concentration at 16 h [2]: 0.34 ng/mL
- concentration at 24 h [2]: 0.23 ng/mL
- concentration at 72 h [2]: 0 ng/mL
- concentration at 0 h [3]: 0 ng/mL
- concentration at 0.67 h [3]: 39 ng/mL
- concentration at 1 h [3]: 40.7 ng/mL
- concentration at 1.5 h [3]: 32.6 ng/mL
- concentration at 2 h [3]: 26.1 ng/mL
- concentration at 3 h [3]: 15.8 ng/mL
- concentration at 4 h [3]: 10.1 ng/mL
- concentration at 6 h [3]: 6.33 ng/mL
- concentration at 8 h [3]: 3.98 ng/mL
- concentration at 12 h [3]: 1.36 ng/mL
- concentration at 16 h [3]: 0.75 ng/mL
- concentration at 24 h [3]: 0.41 ng/mL
- concentration at 32 h [3]: 0.43 ng/mL
- concentration at 48 h [3]: 0.24 ng/mL
- concentration at 72 h [3]: 0.16 ng/mL
- concentration at 0 h [4]: 0 ng/mL
- concentration at 0.67 h [4]: 27.9 ng/mL
- concentration at 1 h [4]: 36.8 ng/mL
- concentration at 1.5 h [4]: 27.7 ng/mL
- concentration at 2 h [4]: 18 ng/mL
- concentration at 3 h [4]: 7.84 ng/mL
- concentration at 4 h [4]: 4.29 ng/mL
- concentration at 6 h [4]: 3 ng/mL
- concentration at 8 h [4]: 2.38 ng/mL
- concentration at 12 h [4]: 0.65 ng/mL
- concentration at 16 h [4]: 0.44 ng/mL
- concentration at 24 h [4]: 0.28 ng/mL
- concentration at 32 h [4]: 0.28 ng/mL
- concentration at 48 h [4]: 0.09 ng/mL
- concentration at 72 h [4]: 0 ng/mL
- AUC(0-inf) (dog, plasma, po): 0.6 ng·h/mL
- Cmax (dog, plasma, po): 19 to 71.3 ng/mL
- half-life (dog, plasma, po): 18.4 h
- AUC (dog, plasma, po, 0.12 mg/kg, 0.12 mg/kg THC in combination with 0.24 mg/kg CBD): 90 to 110 ng·h/mL
- AUC (dog, plasma, po, 0.24 mg/kg, 0.24 mg/kg THC in combination with 0.12 mg/kg CBD): 145 to 170 ng·h/mL
